Like-named read-outs stand apart in the source and are kept apart here.
Legend:
[1] = molecular target: T1, PfHGXPRT (Plasmodium falciparum, UniProt P20035); experiment: PfHGXPRT steady-state kinetics; format: biochemical
T1 sequence (P20035 1-231): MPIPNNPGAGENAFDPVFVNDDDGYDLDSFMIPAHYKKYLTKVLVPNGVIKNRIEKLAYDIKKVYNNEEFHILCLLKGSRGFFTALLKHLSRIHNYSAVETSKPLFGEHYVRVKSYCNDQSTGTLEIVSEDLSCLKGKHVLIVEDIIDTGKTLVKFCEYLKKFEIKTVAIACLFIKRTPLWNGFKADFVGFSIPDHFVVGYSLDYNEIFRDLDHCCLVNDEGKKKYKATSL

[2] = substrate: O=c1[nH]cnc2nc[nH]c12; experiment: purified protein, by the assay type; details: other: unactivated enzyme; pH 7.4

Molecule | Km ([1]; read-out: Km, activated PfHGXPRT, substrate-activated enzyme) [µM] | Km ([1]; read-out: Km, unactivated PfHGXPRT, unactivated enzyme) [µM] | Km [2] [µM]
O=P(O)(O)OC[C@H]1O[C@H](OP(=O)(O)OP(=O)(O)O)[C@H](O)[C@@H]1O [PRPP, 5-phospho-α-D-ribosyl 1-pyrophosphate] | 185 ± 14 | 55 ± 11 | –
PfHGXPRT (Plasmodium falciparum FCR-3/Gambia) (protein) MPIPNNPGAGENAFDPVFVNDDDGYDLDSFMIPAHYKKYLTKVLVPNGVIKNRIEKLAYDIKKVYNNEEFHILCLLKGSRGFFTALLKHLSRIHNYSAVETSKPLFGEHYVRVKSYCNDQSTGTLEIVSEDLSCLKGKHVLIVEDIIDTGKTLVKFCEYLKKFEIKTVAIACLFIKRTPLWNGFKADFVGFSIPDHFVVGYSLDYNEIFRDLDHCCLVNDEGKKKYKATSL | – | – | 2.7 ± 0.3

Source: publication PMC9772100 (ACS chemical biology, 2022)
